Measurements taken from patent US20070128217A1 (priority 2003, published 2007).

Experiments:
[1] = system: control sera (pooled serum of ten healthy LUMC hospital workers; commercial negative donor pooled serum from the Dutch bloodbank); assay type: binding, human; design: Binding of Control serum LUMC to linear peptides / Binding of Control serum Blood-bank to linear peptides / Binding of Control serum LUMC to looped peptides / Binding of Control Serum Blood-Bank to Looped peptides / Binding of Control serum LUMC to linear peptides of the protein M of SARS-CoV Urbani / Binding of Control serum Blood-bank to linear peptides of the protein M of SARS-CoV Urbani / Binding of Control serum LUMC to looped peptides of the protein M of SARS-CoV Urbani / Binding of Control Serum Blood-Bank to Looped peptides of the protein M of SARS-CoV Urbani: unit not given here
[2] = system: rabbit serum obtained by immunizing a rabbit with the SARS-CoV strain Frankfurt 1; assay type: binding; design: Binding of a rabbit serum to linear peptides / Binding of a rabbit serum to looped peptides / Rabbit serum linear peptides / Rabbit serum looped peptides / Binding of a rabbit serum to linear peptides of protein N of SARS-CoV Urbani (Rabbit serum linear peptides) / Binding of a rabbit serum to looped/cyclic peptides of protein N of SARS-CoV Urbani (Rabbit serum looped peptides): unit not given here
[3] = system: antibodies in sera from SARS patients (sera 1a, 1b, 2, 6, 37, 62, London, SARS-yellow, SARS-green); assay type: binding, human; design: Binding of serum 6 to linear peptides of protein X1 of SARS-CoV Urbani / Binding of serum 37 to linear peptides of protein X1 of SARS-CoV Urbani / Binding of serum 6 to looped/cyclic peptide (PEPSCAN-ELISA) / Binding of serum 37 to looped/cyclic peptide (PEPSCAN-ELISA) / Binding of serum 37 to looped/cyclic peptides of protein X1 of SARS-CoV Urbani / Binding of serum 6 to linear peptides of protein X2 / Binding of serum 37 to linear peptides of protein X2 / Binding of serum 37 to looped/cyclic peptides of protein X2 of SARS-CoV Urbani / Binding of serum 6 to linear peptides of protein M of SARS-CoV Urbani / Binding of serum 37 to linear peptides of protein M of SARS-CoV Urbani / Binding of serum 6 to looped/cyclic peptides of protein M of SARS-CoV Urbani / Binding of serum 37 to looped/cyclic peptides of protein M of SARS-CoV Urbani / Binding of serum 6 to linear peptides of protein X3 of SARS-CoV Urbani / Binding of serum 37 to linear peptides of protein X3 of SARS-CoV Urbani / Binding of serum 37 to looped/cyclic peptides of protein X3 of SARS-CoV Urbani / Binding of serum 6 to linear peptides of protein X4 of SARS-CoV Urbani / Binding of serum 37 to linear peptides of protein X4 of SARS-CoV Urbani / Binding of serum 37 to looped/cyclic peptides of protein X4 of SARS-CoV Urbani / Binding of serum 6 to linear peptides of protein X5 of SARS-CoV Urbani / Binding of serum 37 to linear peptides of protein X5 of SARS-CoV Urbani / Binding of serum 37 to looped/cyclic peptides of protein X5 of SARS-CoV Urbani / Binding of serum 6 to linear peptides of protein N of SARS-CoV Urbani / Binding of serum 37 to linear peptides of protein N of SARS-CoV Urbani / Binding of serum 6 to linear peptide (PEPSCAN-ELISA) / Binding of serum 1a to looped/cyclic peptides of protein N of SARS-CoV Urbani / Binding of serum 1b to looped/cyclic peptides of protein N of SARS-CoV Urbani / Binding of serum 2 to looped/cyclic peptides of protein N of SARS-CoV Urbani / Binding of serum 6 to looped/cyclic peptides of protein N of SARS-CoV Urbani / Binding of serum 37 to looped/cyclic peptides of protein N of SARS-CoV Urbani / Binding of serum 62 to looped/cyclic peptides of protein N of SARS-CoV Urbani / Binding of serum London to looped/cyclic peptides of protein N of SARS-CoV Urbani / Binding of serum SARS-green to looped/cyclic peptides of protein N of SARS-CoV Urbani: unit not given here

Sequence: YRIGNYKLNTDHAGS
- Binding of Control Serum Blood-Bank to Looped peptides of the protein M of SARS-CoV Urbani [1]: 0.6
- Binding of Control serum Blood-bank to linear peptides of the protein M of SARS-CoV Urbani [1]: 0.6
- Binding of Control serum LUMC to linear peptides of the protein M of SARS-CoV Urbani [1]: 0.3
- Binding of Control serum LUMC to looped peptides of the protein M of SARS-CoV Urbani [1]: 0.6
- Rabbit serum linear peptides [2]: 0.6
- Rabbit serum looped peptides [2]: 0.1
- Binding of serum 1a to linear peptides of protein M of SARS-CoV Urbani [3]: 0.7
- Binding of serum 1a to looped/cyclic peptides of protein M of SARS-CoV Urbani [3]: 0.8
- Binding of serum 1b to linear peptides of protein M of SARS-CoV Urbani [3]: 0.6
- Binding of serum 1b to looped/cyclic peptides of protein M of SARS-CoV Urbani [3]: 0.6
- Binding of serum 2 to linear peptides of protein M of SARS-CoV Urbani [3]: 0.5
- Binding of serum 2 to looped/cyclic peptides of protein M of SARS-CoV Urbani [3]: 0.5
- Binding of serum 6 to linear peptides of protein M of SARS-CoV Urbani [3]: 0.2
- Binding of serum 6 to looped/cyclic peptides of protein M of SARS-CoV Urbani [3]: 0.8
- Binding of serum 37 to linear peptides of protein M of SARS-CoV Urbani [3]: 0.8
- Binding of serum 37 to looped/cyclic peptides of protein M of SARS-CoV Urbani [3]: 0.7
- Binding of serum 62 to linear peptides of protein M of SARS-CoV Urbani [3]: 0.7
- Binding of serum 62 to looped/cyclic peptides of protein M of SARS-CoV Urbani [3]: 0.6
- Binding of serum London to linear peptides of protein M of SARS-CoV Urbani [3]: 0.5
- Binding of serum London to looped/cyclic peptides of protein M of SARS-CoV Urbani [3]: 0.4
- Binding of serum SARS-green to linear peptides of protein M of SARS-CoV Urbani [3]: 0.2
- Binding of serum SARS-green to looped/cyclic peptides of protein M of SARS-CoV Urbani [3]: 0.3
- Binding of serum SARS-yellow to linear peptides of protein M of SARS-CoV Urbani [3]: 0.1
- Binding of serum SARS-yellow to looped/cyclic peptides of protein M of SARS-CoV Urbani [3]: 0.6

Sequence: YRINWVTGGIAIAMA
- Binding of Control Serum Blood-Bank to Looped peptides of the protein M of SARS-CoV Urbani [1]: 0.7
- Binding of Control serum Blood-bank to linear peptides of the protein M of SARS-CoV Urbani [1]: 0.8
- Binding of Control serum LUMC to linear peptides of the protein M of SARS-CoV Urbani [1]: 0.6
- Binding of Control serum LUMC to looped peptides of the protein M of SARS-CoV Urbani [1]: 0.6
- Rabbit serum linear peptides [2]: 0.4
- Rabbit serum looped peptides [2]: 0.3
- Binding of serum 1a to linear peptides of protein M of SARS-CoV Urbani [3]: 0.7
- Binding of serum 1a to looped/cyclic peptides of protein M of SARS-CoV Urbani [3]: 0.6
- Binding of serum 1b to linear peptides of protein M of SARS-CoV Urbani [3]: 0.6
- Binding of serum 1b to looped/cyclic peptides of protein M of SARS-CoV Urbani [3]: 0.4
- Binding of serum 2 to linear peptides of protein M of SARS-CoV Urbani [3]: 0.7
- Binding of serum 2 to looped/cyclic peptides of protein M of SARS-CoV Urbani [3]: 0.6
- Binding of serum 6 to linear peptides of protein M of SARS-CoV Urbani [3]: 0.3
- Binding of serum 6 to looped/cyclic peptides of protein M of SARS-CoV Urbani [3]: 0.5
- Binding of serum 37 to linear peptides of protein M of SARS-CoV Urbani [3]: 0.8
- Binding of serum 37 to looped/cyclic peptides of protein M of SARS-CoV Urbani [3]: 0.5
- Binding of serum 62 to linear peptides of protein M of SARS-CoV Urbani [3]: 0.8
- Binding of serum 62 to looped/cyclic peptides of protein M of SARS-CoV Urbani [3]: 0.6
- Binding of serum London to linear peptides of protein M of SARS-CoV Urbani [3]: 0.3
- Binding of serum London to looped/cyclic peptides of protein M of SARS-CoV Urbani [3]: 0.2
- Binding of serum SARS-green to linear peptides of protein M of SARS-CoV Urbani [3]: 0.3
- Binding of serum SARS-green to looped/cyclic peptides of protein M of SARS-CoV Urbani [3]: 0.0
- Binding of serum SARS-yellow to linear peptides of protein M of SARS-CoV Urbani [3]: 0.1
- Binding of serum SARS-yellow to looped/cyclic peptides of protein M of SARS-CoV Urbani [3]: 0.8

Sequence: YSHLLLVAAGMEAQF
- Binding of Control Serum Blood-Bank to Looped peptides [1]: 0.4
- Binding of Control serum Blood-bank to linear peptides [1]: 0.6
- Binding of Control serum LUMC to linear peptides [1]: 0.5
- Binding of Control serum LUMC to looped peptides [1]: 0.6
- Binding of a rabbit serum to linear peptides [2]: 0.1
- Binding of a rabbit serum to looped peptides [2]: 0.4
- Binding of serum 1a to linear peptides of protein X1 of SARS-CoV Urbani [3]: 0.7
- Binding of serum 1a to looped/cyclic peptide (PEPSCAN-ELISA) [3]: 0.4
- Binding of serum 1b to linear peptides of protein X1 of SARS-CoV Urbani [3]: 0.6
- Binding of serum 1b to looped/cyclic peptide (PEPSCAN-ELISA) [3]: 0.4
- Binding of serum 2 to linear peptides of protein X1 of SARS-CoV Urbani [3]: 0.5
- Binding of serum 2 to looped/cyclic peptide (PEPSCAN-ELISA) [3]: 0.5
- Binding of serum 6 to linear peptides of protein X1 of SARS-CoV Urbani [3]: 0.5
- Binding of serum 6 to looped/cyclic peptide (PEPSCAN-ELISA) [3]: 0.3
- Binding of serum 37 to linear peptides of protein X1 of SARS-CoV Urbani [3]: 0.6
- Binding of serum 37 to looped/cyclic peptide (PEPSCAN-ELISA) [3]: 0.7
- Binding of serum 62 to linear peptides of protein X1 of SARS-CoV Urbani [3]: 0.7
- Binding of serum 62 to looped/cyclic peptide (PEPSCAN-ELISA) [3]: 0.5
- Binding of serum London to linear peptides of protein X1 of SARS-CoV Urbani [3]: 0.3
- Binding of serum London to looped/cyclic peptide (PEPSCAN-ELISA) [3]: 0.3
- Binding of serum SARS-green to linear peptides of protein X1 of SARS-CoV Urbani [3]: 0.3
- Binding of serum SARS-green to looped/cyclic peptide (PEPSCAN-ELISA) [3]: 0.5
- Binding of serum SARS-yellow to linear peptides of protein X1 of SARS-CoV Urbani [3]: 0.4
- Binding of serum SARS-yellow to looped/cyclic peptide (PEPSCAN-ELISA) [3]: 0.3

Sequence: YSNRNRFLYIIKLVF
- Binding of Control Serum Blood-Bank to Looped peptides of the protein M of SARS-CoV Urbani [1]: 0.6
- Binding of Control serum Blood-bank to linear peptides of the protein M of SARS-CoV Urbani [1]: 0.7
- Binding of Control serum LUMC to linear peptides of the protein M of SARS-CoV Urbani [1]: 0.4
- Binding of Control serum LUMC to looped peptides of the protein M of SARS-CoV Urbani [1]: 0.9
- Rabbit serum linear peptides [2]: 0.4
- Rabbit serum looped peptides [2]: 0.5
- Binding of serum 1a to linear peptides of protein M of SARS-CoV Urbani [3]: 0.7
- Binding of serum 1b to linear peptides of protein M of SARS-CoV Urbani [3]: 0.5
- Binding of serum 2 to linear peptides of protein M of SARS-CoV Urbani [3]: 0.6
- Binding of serum 6 to linear peptides of protein M of SARS-CoV Urbani [3]: 0.3
- Binding of serum 37 to linear peptides of protein M of SARS-CoV Urbani [3]: 0.7
- Binding of serum 62 to linear peptides of protein M of SARS-CoV Urbani [3]: 0.7
- Binding of serum London to linear peptides of protein M of SARS-CoV Urbani [3]: 0.3
- Binding of serum SARS-green to linear peptides of protein M of SARS-CoV Urbani [3]: 0.3
- Binding of serum SARS-yellow to linear peptides of protein M of SARS-CoV Urbani [3]: 0.1
- Recognition of the peptide by sera of SARS-CoV infected individuals, and form (linear, looped/cyclic) in which it is recognized [3]: recognized in looped/cyclic form
